Like-named read-outs stand apart in the source and are kept apart here.
What was measured:
[1] = tested on: H929 human cancer cell lines; assay: Cellular viability / proliferation (Cell TiterGlo, 72 h); assay type: cell-based
Method in brief: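 Plating is at 1,000 cells/well in 10% FBS medium; after 24 h, compound is added as a 2-fold series starting at 50 μM with under 1% DMSO.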

Mcl-1 = Mcl-1 (Homo sapiens (Human), UniProt Q07820); assay: Fluorescence polarization anisotropy (FPA) competition assay, FITC-Bak or FITC-Bim BH3 peptide; assay type: binding; conditions: read-out: Ki for Inhibition of Mcl-1 by FPA assay
Mcl-1, sequence (Q07820 172-327): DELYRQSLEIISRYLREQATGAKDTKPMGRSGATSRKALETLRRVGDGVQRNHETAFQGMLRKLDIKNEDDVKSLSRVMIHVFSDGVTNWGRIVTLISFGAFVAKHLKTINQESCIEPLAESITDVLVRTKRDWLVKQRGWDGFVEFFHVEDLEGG

[2] = Homo sapiens, NCI-H929, 72 h, read-out: GI50 on cellular proliferation of H929 human cancer cell lines, H929 cells, 72 h, Cell TiterGlo, 10% FBS
[3] = read-out: GI50 on cellular proliferation of H929 human cancer cell lines, H929 cells, 72 h, Cell TiterGlo, 10% FBS

SMILES	GI50 [1, 2] [nM]	Ki (Mcl-1) [nM]	GI50 [1, 3] [nM]
Cc1cc(OCCCc2c3n(c4c(-c5c(C)nn(C)c5C)c(Cl)ccc24)[C@H](C)CN(c2cccc4c(C)c(C(=O)O)n(C)c24)C3=O)cc(C)c1Cl [Example 316, (R)-7-(7-Chloro-10-(3-(4-chloro-3,5-dimethylphenoxy)propyl)-4-methyl-1-oxo-6-(1,3,5-trimethyl-1H-pyrazol-4-yl)-3,4-dihydropyrazino[1,2-a]indol-2(1H)-yl)-1,3-dimethyl-1H-indole-2-carboxylic acid]	470	< 1	
Cc1cc(OCCCc2c3n(c4c(-c5c(C)nn(C)c5C)c(Cl)ccc24)[C@H](C)CN(c2cc(Cl)cc4cc(C(=O)O)oc24)C3=O)cc(C)c1Cl [Example 232, (R)-5Chloro-7-(7-chloro-10-(3-(4-chloro-3,5-dimethylphenoxy)propyl)-4-methyl-1-oxo-6-(1,3,5-trimethyl-1H-pyrazol-4-yl)-3,4-dihydropyrazino[1,2-a]indol-2(1H)-yl)benzofuran-2-carboxylic acid]	4000	< 1	
Cc1cc(OCCCc2c3n(c4c(-c5c(C)nn(C)c5C)c(Cl)ccc24)[C@H](C)CN(c2cc(C(=O)O)c4cnn(C)c4c2)C3=O)cc(C)c1Cl [Example 53, (R)-6-(7-chloro-10-(3-(4-chloro-3,5-dimethylphenoxy)propyl)-4-methyl-1-oxo-6-(1,3,5-trimethyl-1H-pyrazol-4-yl)-3,4-dihydropyrazino[1,2-a]indol-2(1H)-yl)-1-methyl-1H-indazole-4-carboxylic acid]	500	< 1	
Cc1cc(OCCCc2c3n(c4c(-c5c(C)nn(C)c5C)c(Cl)ccc24)[C@H](C)CN(c2nn(C)c4cccc(C(=O)O)c24)C3=O)cc(C)c1Cl [Example 175, (R)-3-(7-Chloro-10-(3-(4-chloro-3,5-dimethylphenoxy)propyl)-4-methyl-1-oxo-6-(1,3,5-trimethyl-1H-pyrazol-4-yl)-3,4-dihydropyrazino[1,2-a]indol-2(1H)-yl)-1-methyl-1H-indazole-4-carboxylic acid]		< 1	340
Cc1cc(OCCCc2c3n(c4c(-c5c(C)nn(C)c5C)c(Cl)ccc24)[C@H](C)CN(c2nn(C)c4ccc(C(=O)O)cc24)C3=O)cc(C)c1Cl [Example 163, (R)-3-(7-Chloro-10-(3-(4-chloro-3,5-dimethylphenoxy)propyl)-4-methyl-1-oxo-6-(1,3,5-trimethyl-1H-pyrazol-4-yl)-3,4-dihydropyrazino[1,2-a]indol-2(1H)-yl)-1-methyl-1H-indazole-5-carboxylic acid]	260	< 1	
Cc1cc(OCCCc2c3n(c4c(-c5c(C)nn(C)c5C)c(Cl)ccc24)[C@H](C)CN(c2cccc4cc(C(=O)O)n(Cc5cscn5)c24)C3=O)cc(C)c1Cl [Example 304, 7-[(4R)-7-chloro-10-[3-(4-chloro-3,5-dimethyl-phenoxy)propyl]-4-methyl-1-oxo-6-(1,3,5-trimethylpyrazol-4-yl)-3,4-dihydropyrazino[1,2-a]indol-2-yl]-1-(thiazol-4-ylmethyl)indole-2-carboxylic acid]	370	< 1	
COCCn1c(C(=O)O)cc2cc(C)cc(N3C[C@@H](C)n4c(c(CCCOc5cc(C)c(Cl)c(C)c5)c5ccc(Cl)c(-c6c(C)nn(C)c6C)c54)C3=O)c21 [Example 470, (R)-7-(7-Chloro-10-(3-(4-chloro-3,5-dimethylphenoxy)propyl)-4-methyl-1-oxo-6-(1,3,5-trimethyl-1H-pyrazol-4-yl)-3,4-dihydropyrazino[1,2-a]indol-2(1H)-yl)-1-(2-methoxyethyl)-5-methyl-1H-indole-2-carboxylic acid]	< 200	< 1	
Cc1cc(OCCCc2c3n(c4c(-c5c(C)ncnc5C)c(Cl)ccc24)[C@H](C)CN(c2cccc4cc(C(N)=O)n(C)c24)C3=O)cc(C)c1Cl [Example 384, (R)-7-(7-Chloro-10-(3-(4-chloro-3,5-dimethylphenoxy)propyl)-6-(4,6-dimethylpyrimidin-5-yl)-4-methyl-1-oxo-3,4-dihydropyrazino[1,2-a]indol-2(1H)-yl)-1-methyl-1H-indole-2-carboxamide]	910	6.8	
Cc1cc(OCCCc2c3n(c4c(-c5c(C)nn(C)c5C)c(Cl)ccc24)[C@H](C)CN(c2cccc4cc(C(=O)O)n(Cc5ccccn5)c24)C3=O)cc(C)c1Cl [Example 247, 7-[(4R)-7-chloro-10-[3-(4-chloro-3,5-dimethyl-phenoxy)propyl]-4-methyl-1-oxo-6-(1,3,5-trimethylpyrazol-4-yl)-3,4-dihydropyrazino[1,2-a]indol-2-yl]-1-(2-pyridylmethyl)indole-2-carboxylic acid]		< 1	< 200
Cc1cc(OCCCc2c3n(c4c(-c5c(C)nn(C)c5C)c(Cl)ccc24)[C@H](C)CN(c2cn(C)c4ccc(-c5nnco5)cc24)C3=O)cc(C)c1Cl [Example 346, (R)-7-Chloro-10-(3-(4-chloro-3,5-dimethylphenoxy)propyl)-4-methyl-2-(1-methyl-5-(1,3,4-oxadiazol-2-yl)-1H-indol-3-yl)-6-(1,3,5-trimethyl-1H-pyrazol-4-yl)-3,4-dihydropyrazino[1,2-a]indol-1(2H)-one]	1600	5.1	
Cc1cc(OCCCc2c3n(c4c(-c5c(C)nn(C)c5C)c(Cl)ccc24)[C@H](C)CN(c2cn(C)c4c(-c5nnnn5C)cccc24)C3=O)cc(C)c1Cl [Example 372, (R)-7-Chloro-10-(3-(4-chloro-3,5-dimethylphenoxy)propyl)-4-methyl-2-(1-methyl-7-(1-methyl-1H-tetrazol-5-yl)-1H-indol-3-yl)-6-(1,3,5-trimethyl-1H-pyrazol-4-yl)-3,4-dihydropyrazino[1,2-a]indol-1(2H)-one]	2000	1.2	
Cc1cc(N2C[C@@H](C)n3c(c(CCCOc4cc(C)c(Cl)c(C)c4)c4ccc(Cl)c(-c5c(C)ncnc5C)c43)C2=O)c2c(c1)c(C)c(C(=O)O)n2C [Example 339, (R)-7-(7-Chloro-10-(3-(4-chloro-3,5-dimethylphenoxy)propyl)-6-(4,6-dimethylpyrimidin-5-yl)-4-methyl-1-oxo-3,4-dihydropyrazino[1,2-a]indol-2(1H)-yl)-1,3,5-trimethyl-1H-indole-2-carboxylic acid]	320	< 1	
Cc1cc(OCCCc2c3n(c4c(-c5c(C)ncnc5C)c(Cl)ccc24)CCCN(c2cccc4c(C(=O)O)cn(C)c24)C3=O)cc(C)c1Cl [Example 119, 7-[8-chloro-11-[3-(4-chloro-3,5-dimethyl-phenoxy)propyl]-7-(4,6-dimethylpyrimidin-5-yl)-1-oxo-4,5-dihydro-3H-[1,4]diazepino[1,2-a]indol-2-yl]-1-methyl-indole-3-carboxylic acid]	2900	< 1	
Cc1cc(OCCCc2c3n(c4c(-c5c(C)nn(C)c5C)c(Cl)ccc24)[C@H](C)CN(c2cn(C)c4c(C#N)cccc24)C3=O)cc(C)c1Cl [Example 209, (R)-3-(7-Chloro-10-(3-(4-chloro-3,5-dimethylphenoxy)propyl)-4-methyl-1-oxo-6-(1,3,5-trimethyl-1H-pyrazol-4-yl)-3,4-dihydropyrazino[1,2-a]indol-2(1H)-yl)-1-methyl-1H-indole-7-carbonitrile]	3500	1.2	
CCn1nc(C(=O)O)c2cccc(N3C[C@@H](C)n4c(c(CCCOc5cc(C)c(Cl)c(C)c5)c5ccc(Cl)c(-c6c(C)nn(C)c6C)c54)C3=O)c21 [Example 118, (R)-7-(7-chloro-10-(3-(4-chloro-3,5-dimethylphenoxy)propyl)-4-methyl-1-oxo-6-(1,3,5-trimethyl-1H-pyrazol-4-yl)-3,4-dihydropyrazino[1,2-a]indol-2(1H)-yl)-1-ethyl-1H-indazole-3-carboxylic acid]	820	< 1	
COc1cc(C(=O)O)cc(N2CCCn3c(c(CCCOc4cc(C)c(Cl)c(C)c4)c4ccc(Cl)c(-c5c(C)nn(C)c5C)c43)C2=O)c1OCCc1ccccc1 [Example 66, 3-[8-Chloro-11-[3-(4-chloro-3,5-dimethyl-phenoxy)propyl]-1-oxo-7-(1,3,5-trimethylpyrazol-4-yl)-4,5-dihydro-3H-[1,4]diazepino[1,2-a]indol-2-yl]-5-methoxy-4-(2-phenylethoxy)benzoic acid]	6400	4.3	
Cc1cc(OCCCc2c3n(c4c(-c5c(C)nn(C)c5C)c(Cl)ccc24)[C@H](C)CN(c2cccc4cc(C(=O)O)n(Cc5cncnc5)c24)C3=O)cc(C)c1Cl [Example 311, 7-[(4R)-7-chloro-10-[3-(4-chloro-3,5-dimethyl-phenoxy)propyl]-4-methyl-1-oxo-6-(1,3,5-trimethylpyrazol-4-yl)-3,4-dihydropyrazino[1,2-a]indol-2-yl]-1-(pyrimidin-5-ylmethyl)indole-2-carboxylic acid]	3400	< 1	
Cc1cc(OCCCc2c3n(c4c(-c5c(C)nn(CCN6CCCC6)c5C)c(Cl)ccc24)[C@H](C)CN(c2cn(C)c4ccc(C(=O)O)cc24)C3=O)cc(C)c1Cl [Example 263, (R)-3-(7-chloro-10-(3-(4-chloro-3,5-dimethylphenoxy)propyl)-6-(3,5-dimethyl-1-(2-(pyrrolidin-1-yl)ethyl)-1H-pyrazol-4-yl)-4-methyl-1-oxo-3,4-dihydropyrazino[1,2-a]indol-2(1H)-yl)-1-methyl-1H-indole-5-carboxylic acid]	270	1.8	
Cc1cc(OCCCc2c3n(c4c(-c5c(C)nn(C)c5C)c(Cl)ccc24)[C@H](C)CN(c2cccc4c(C(=O)O)n(C)nc24)C3=O)cc(C)c1Cl [Example 54, (R)-7-(7-chloro-10-(3-(4-chloro-3,5-dimethylphenoxy)propyl)-4-methyl-1-oxo-6-(1,3,5-trimethyl-1H-pyrazol-4-yl)-3,4-dihydropyrazino[1,2-a]indol-2(1H)-yl)-2-methyl-2H-indazole-3-carboxylic acid]	320	< 1	
